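Exposure lasted 48 hours, with cells grown in 96-well plates and compounds tested at five concentrations. GI50 = concentration required for 50% inhibition of growth. The concentration for full growth arrest is given as TGI.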
Key:
Experiment in all cases: growth of human tumour cells (NCI), 48 h
[1] = test system: XF 498 CNS
[2] = test system: DMS 114 small cell lung
[3] = test system: LXFL 529 NSCLC
[4] = test system: KM20L2 colon
[5] = test system: SNB-78 CNS
[6] = test system: DMS 273 small cell lung
[7] = test system: M19-MEL melanoma
[8] = test system: MDA-N
[9] = test system: RXF-631 renal

Row | SMILES | TGI [1] [µM] | TGI [2] [µM] | TGI [3] [µM] | TGI [4] [µM] | TGI [5] [µM] | TGI [6] [µM] | TGI [7] [µM] | TGI [8] [µM] | TGI [9] [µM] | other results
1 | Cc1c(Cl)cccc1NC(=O)CC1C(=O)Nc2ccccc2S1(=O)=O (stereo not given) | 30 | 44.9 | 29 | 44.9 | 45.5 | 21.4 | 55.3 | – | – | –
2 | CC(=O)OCC=C(CCl)CCC(Br)C(C)(C)Br (mixture of isomers) | – | – | – | – | – | – | – | > 10 | – | –
3 | c1nnc(NCNc2nncs2)s1 | – | – | – | – | – | – | – | > 100 | – | –
4 | Cc1ccc(N=Nc2c(C)c(C#N)c(=S)n(C3OC(CO)C(O)C(O)C3O)c2-c2ccccc2)cc1 (stereo not given) | – | – | – | – | – | – | – | 71.7 | – | –
5 | OCC1OC(n2cnc3c(/C=C(/O)c4ccccc4)ncnc32)C(O)C1O (stereo not given) | – | – | – | – | – | – | – | > 100 | – | –
6 | CCOC(=O)CC1NC(=O)CS1 (stereo not given) | – | 57.8 | > 100 | > 100 | > 100 | > 100 | > 100 | – | > 100 | –
7 | CN[C@@H]1C[C@H]2O[C@@](C)([C@@H]1OC)n1c3ccccc3c3c4c(c5c6ccccc6n2c5c31)C(=O)N[C@@H]4O | 0.463 | 1.58 | 0.549 | 2.53 | 0.225 | 0.637 | 4.99 | 1.6 | – | –
8 | CN1C(=O)C(Cl)(C(Cl)(Cl)S(=O)(=O)O)C(=O)c2ccccc21 (stereo not given) | – | – | > 100 | 40.6 | – | – | > 100 | – | – | –
9 | N#CC(NNC(=O)c1ccccc1O)c1cccc(O)c1 (stereo not given) | – | 11.1 | > 100 | > 100 | > 100 | > 100 | – | – | – | –
10 | Nc1ccc(S(=O)(=O)NCc2nccs2)cc1 | – | – | – | – | – | – | – | 54.1 | – | –
11 | O=c1[nH]c2cc3[nH]c4ncccc4c(=O)c3cc2[nH]1 | – | – | – | – | – | – | – | > 10 | – | –
12 | O=C1C2Cc3ccccc3CN2C(=O)N1CCN1CCCC1 (stereo not given) | > 100 | > 100 | > 100 | > 100 | – | > 100 | > 100 | – | > 100 | –
13 | COC(=O)c1nc(N)[nH]c(=O)c1CCCCCc1c(C(=O)OC)nc(N)[nH]c1=O | > 50 | > 50 | > 50 | > 50 | > 50 | > 50 | > 50 | – | > 50 | –
14 | CCN(CC)c1ccc2c(c1)Nc1cc(=C(C#N)C#N)c3ccccc3c1=N2 | > 100 | > 100 | > 100 | > 100 | > 100 | > 100 | > 100 | – | > 100 | –
15 | CCOC(=O)C(=O)Nc1c(C(C)C)cccc1C(C)C | > 100 | > 100 | > 100 | > 100 | > 100 | > 100 | > 100 | – | > 100 | –
16 | Cc1c2cc[n+](C)cc2c(C)c2c1[nH]c1ccc(O)c(OCC(F)(F)F)c12 | 10.6 | 8.04 | 8.16 | > 55 | 4.96 | 8.79 | 11.8 | – | 15.4 | –
17 | O=[N+]([O-])c1ccc2c(c1)[O][Sn]([I])([I])[O]2 | – | > 100 | – | > 100 | > 100 | > 100 | > 100 | – | – | GI50 [2]: > 100 µM; GI50 [4]: > 100 µM; GI50 [5]: > 100 µM; GI50 [6]: 71.1 µM; GI50 [7]: 85.3 µM
18 | C[C-](O)O.O/C(=C\[C-](O)c1ccccc1)c1ccccc1.O/C(=C\[C-](O)c1ccccc1)c1ccccc1.[Nd+3] (stereo not given) | 36.2 | 57 | > 100 | 21 | – | 16.1 | 42.7 | – | – | GI50 [1]: 13.8 µM; GI50 [2]: 17.9 µM; GI50 [3]: 5.79 µM; GI50 [4]: 5.76 µM; GI50 [6]: 3.25 µM; GI50 [7]: 12.2 µM
19 | Cc1ccc(SC(=O)N2C(=S)NC(=NC3CCCCC3)C23CCCCC3)cc1 | – | – | – | – | – | – | – | > 100 | – | –
20 | CN=C1SC(=Nc2ccc(N(C)C)cc2)N1C | – | 60.3 | > 100 | – | > 100 | > 100 | > 100 | – | – | –
21 | Cc1cc(=O)oc2cc(O)c(CN(C)CC(=O)O)cc12 | – | – | – | – | – | – | – | > 100 | – | –
22 | CC1CCN(CC(=O)N2c3ccccc3Sc3cc4ccccc4cc32)CC1 | – | – | – | – | – | – | – | > 100 | – | –
23 | CCOC(=O)[C@H]1Nc2ccc(OC)cc2C2c3ccccc3CC21 (stereo not given in full) | > 100 | > 100 | > 100 | > 100 | > 100 | > 100 | > 100 | – | > 100 | –
24 | COc1ccc2c(c1)[n+]([O-])c(/C(C)=N/NC(=O)CC#N)c[n+]2[O-] | > 100 | > 100 | > 100 | > 100 | > 100 | > 100 | > 100 | – | > 100 | –
25 | O=Cc1ccc(-c2cccs2)s1 | 11.5 | > 100 | 4.51 | > 100 | > 100 | > 100 | > 100 | > 100 | 12.9 | –

— PubChem BioAssay (NCI)
